System: cell lines from the Cancer Cell Line Encyclopedia (CCLE)
Test: High-throughput cell viability assay, CCLE cell line panel (n = 356)
Format: cell-based, human
Description: Cell lines were partitioned into sensitive and insensitive groups based on compound potency (IC50). […] All other cell lines were obtained from ATCC (American Type Culture Collection), DSMZ (Deutsche Sammlung von Mikroorganismen und Zellkulturen), and HSRRB (Health Science Research Resources Bank) and cultured in RPMI or Dulbecco's modified Eagle's medium plus 10% FBS (Invitrogen, Carlsbad, CA) at 37°C, 5% CO2.

For `COc1cc2c(cc1OC(C)C)[C@H](c1ccc(Cl)cc1)N(c1ccc(N(C)C[C@H]3CC[C@H](N4CCNC(=O)C4)CC3)cc1)C(=O)C2` [NVP-CFC218], the Amax (42-MG-BA, TP53 MUT) was -30.94%, the sensitivity call (42-MG-BA, TP53 MUT) was “insensitive (Sensitivity call for each compound was applied according to a cut-off of 4 µM for IC50 and -50% for Amax)” and the “share of sensitive cells expressing wild-type p53” value (43/47) was 91.5%. The “share of p53 wild-type cell lines scored insensitive” value (57/100 p53 wild-type cell lines) was 57%, the “number of insensitive cell lines in wider cell line compendium” value (634 cell lines) was 557 and the “number of sensitive cell lines in wider cell line compendium” value (634 cell lines) was 77. The Amax (697, TP53 WT) was -96.96%, the sensitivity call (697, TP53 WT) was “sensitive (Sensitivity call for each compound was applied according to a cut-off of 4 µM for IC50 and -50% for Amax)” and the Amax (8505C, TP53 MUT) was -28.72%. The sensitivity call (8505C, TP53 MUT) was “insensitive (Sensitivity call for each compound was applied according to a cut-off of 4 µM for IC50 and -50% for Amax)”, the Amax (AN3 CA, TP53 MUT) was 5.06% and the sensitivity call (AN3 CA, TP53 MUT) was “insensitive (Sensitivity call for each compound was applied according to a cut-off of 4 µM for IC50 and -50% for Amax)”. The Amax (B-CPAP, TP53 MUT) was 1.71%, the sensitivity call (B-CPAP, TP53 MUT) was “insensitive (Sensitivity call for each compound was applied according to a cut-off of 4 µM for IC50 and -50% for Amax)” and the Amax (BEN, TP53 MUT) was 0.13%. The sensitivity call (BEN, TP53 MUT) was “insensitive (Sensitivity call for each compound was applied according to a cut-off of 4 µM for IC50 and -50% for Amax)”, the Amax (BFTC-905, TP53 MUT) was 0.25% and the sensitivity call (BFTC-905, TP53 MUT) was “insensitive (Sensitivity call for each compound was applied according to a cut-off of 4 µM for IC50 and -50% for Amax)”. The Amax (BFTC-909, TP53 MUT) was 1.37%, the sensitivity call (BFTC-909, TP53 MUT) was “insensitive (Sensitivity call for each compound was applied according to a cut-off of 4 µM for IC50 and -50% for Amax)” and the Amax (BT-20, TP53 MUT) was 1.40%. For the same molecule, the sensitivity call (BT-20, TP53 MUT) was “insensitive (Sensitivity call for each compound was applied according to a cut-off of 4 µM for IC50 and -50% for Amax)”, the Amax (BT-474, TP53 MUT) was -3.44% and the sensitivity call (BT-474, TP53 MUT) was “insensitive (Sensitivity call for each compound was applied according to a cut-off of 4 µM for IC50 and -50% for Amax)”. For the same molecule, the Amax (CAL-12T, TP53 MUT) was -18.61%, the sensitivity call (CAL-12T, TP53 MUT) was “insensitive (Sensitivity call for each compound was applied according to a cut-off of 4 µM for IC50 and -50% for Amax)” and the Amax (CAL-78, TP53 MUT) was -1.01%. For the same molecule, the sensitivity call (CAL-78, TP53 MUT) was “insensitive (Sensitivity call for each compound was applied according to a cut-off of 4 µM for IC50 and -50% for Amax)”, the Amax (CHL-1, TP53 MUT) was -46.61% and the sensitivity call (CHL-1, TP53 MUT) was “insensitive (Sensitivity call for each compound was applied according to a cut-off of 4 µM for IC50 and -50% for Amax)”. For the same molecule, the Amax (CHP-212, TP53 WT) was -71.98%, the sensitivity call (CHP-212, TP53 WT) was “sensitive (Sensitivity call for each compound was applied according to a cut-off of 4 µM for IC50 and -50% for Amax)” and the Amax (COLO 205, TP53 MUT) was -1.62%. The sensitivity call (COLO 205, TP53 MUT) was “insensitive (Sensitivity call for each compound was applied according to a cut-off of 4 µM for IC50 and -50% for Amax)”, the Amax (COLO 792, TP53 WT) was 2.74% and the sensitivity call (COLO 792, TP53 WT) was “insensitive (Sensitivity call for each compound was applied according to a cut-off of 4 µM for IC50 and -50% for Amax)”. The Amax (COR-L23, TP53 WT) was -1.38%, the sensitivity call (COR-L23, TP53 WT) was “insensitive (Sensitivity call for each compound was applied according to a cut-off of 4 µM for IC50 and -50% for Amax)” and the Amax (Capan-1, TP53 MUT) was 30.74%. For the same molecule, the sensitivity call (Capan-1, TP53 MUT) was “insensitive (Sensitivity call for each compound was applied according to a cut-off of 4 µM for IC50 and -50% for Amax)”, the Amax (ChaGo-K-1, TP53 MUT) was -18.45% and the sensitivity call (ChaGo-K-1, TP53 MUT) was “insensitive (Sensitivity call for each compound was applied according to a cut-off of 4 µM for IC50 and -50% for Amax)”. The Amax (DMS 53, TP53 MUT) was 9.69%, the sensitivity call (DMS 53, TP53 MUT) was “insensitive (Sensitivity call for each compound was applied according to a cut-off of 4 µM for IC50 and -50% for Amax)” and the Amax (DU 145, TP53 MUT) was -4.91%. For the same molecule, the sensitivity call (DU 145, TP53 MUT) was “insensitive (Sensitivity call for each compound was applied according to a cut-off of 4 µM for IC50 and -50% for Amax)”, the Amax (Daoy, TP53 MUT) was 2.94% and the sensitivity call (Daoy, TP53 MUT) was “insensitive (Sensitivity call for each compound was applied according to a cut-off of 4 µM for IC50 and -50% for Amax)”. For the same molecule, the Amax (EB2, TP53 MUT) was -5.89%, the sensitivity call (EB2, TP53 MUT) was “insensitive (Sensitivity call for each compound was applied according to a cut-off of 4 µM for IC50 and -50% for Amax)” and the Amax (EFE-184, TP53 MUT) was -2.73%. The sensitivity call (EFE-184, TP53 MUT) was “insensitive (Sensitivity call for each compound was applied according to a cut-off of 4 µM for IC50 and -50% for Amax)”, the Amax (EFO-21, TP53 MUT) was 5.85% and the sensitivity call (EFO-21, TP53 MUT) was “insensitive (Sensitivity call for each compound was applied according to a cut-off of 4 µM for IC50 and -50% for Amax)”. The Amax (FU-OV-1, TP53 MUT) was -2.32%, the sensitivity call (FU-OV-1, TP53 MUT) was “insensitive (Sensitivity call for each compound was applied according to a cut-off of 4 µM for IC50 and -50% for Amax)” and the Amax (FaDu, TP53 MUT) was 8.93%. For the same molecule, the sensitivity call (FaDu, TP53 MUT) was “insensitive (Sensitivity call for each compound was applied according to a cut-off of 4 µM for IC50 and -50% for Amax)”, the Amax (G-401, TP53 WT) was -87.03% and the sensitivity call (G-401, TP53 WT) was “sensitive (Sensitivity call for each compound was applied according to a cut-off of 4 µM for IC50 and -50% for Amax)”. The Amax (GI-1, TP53 MUT) was -2.97%, the sensitivity call (GI-1, TP53 MUT) was “insensitive (Sensitivity call for each compound was applied according to a cut-off of 4 µM for IC50 and -50% for Amax)” and the Amax (GMS-10, TP53 MUT) was -4.00%. The sensitivity call (GMS-10, TP53 MUT) was “insensitive (Sensitivity call for each compound was applied according to a cut-off of 4 µM for IC50 and -50% for Amax)”, the Amax (HCC1806, TP53 MUT) was 1.11% and the sensitivity call (HCC1806, TP53 MUT) was “insensitive (Sensitivity call for each compound was applied according to a cut-off of 4 µM for IC50 and -50% for Amax)”. The Amax (HCC1954, TP53 MUT) was -0.81%, the sensitivity call (HCC1954, TP53 MUT) was “insensitive (Sensitivity call for each compound was applied according to a cut-off of 4 µM for IC50 and -50% for Amax)” and the Amax (HCC-15, TP53 MUT) was -21.49%. The sensitivity call (HCC-15, TP53 MUT) was “insensitive (Sensitivity call for each compound was applied according to a cut-off of 4 µM for IC50 and -50% for Amax)”, the Amax (HCT-15, TP53 MUT) was -20.00% and the sensitivity call (HCT-15, TP53 MUT) was “insensitive (Sensitivity call for each compound was applied according to a cut-off of 4 µM for IC50 and -50% for Amax)”. The Amax (HLF, TP53 MUT) was -3.09%, the sensitivity call (HLF, TP53 MUT) was “insensitive (Sensitivity call for each compound was applied according to a cut-off of 4 µM for IC50 and -50% for Amax)” and the Amax (HMC-1-8, TP53 MUT) was -1.67%. For the same molecule, the sensitivity call (HMC-1-8, TP53 MUT) was “insensitive (Sensitivity call for each compound was applied according to a cut-off of 4 µM for IC50 and -50% for Amax)”, the Amax (Hep G2, TP53 WT) was -62.73% and the sensitivity call (Hep G2, TP53 WT) was “sensitive (Sensitivity call for each compound was applied according to a cut-off of 4 µM for IC50 and -50% for Amax)”. For the same molecule, the IC50 (Homo sapiens, 8-MG-BA, TP53 MUT) was > 8 µM, the IC50 (Homo sapiens, 42-MG-BA, TP53 MUT) was > 8 µM and the IC50 (Homo sapiens, 697, TP53 WT) was 1.59 µM. For the same molecule, the IC50 (Homo sapiens, 769-P, TP53 WT) was 3.01 µM, the IC50 (Homo sapiens, 786-0, 786-O, TP53 MUT) was > 8 µM and the IC50 (Homo sapiens, 5637, TP53 MUT) was > 8 µM. For the same molecule, the IC50 (Homo sapiens, 8505C, TP53 MUT) was > 8 µM.
